Data set [1] is described as follows: Metabolic stability in rat liver microsomes. To be noted: parent remaining after the incubation period. A general note: Liver microsomes are a subcellular fraction often used to study metabolism.
In data set [2] the target is T1, human mGluR4 (Homo sapiens, UniProt Q14833). The class given is cell-based. To be noted: for mGluR4 PAM activity (in words): human mGluR4.
A short description of data set [3]: Metabolic stability in human liver microsomes. The note with it: parent remaining after the incubation period.
Data set [4] deals with mGluR8 (Homo sapiens, UniProt O00222). Kind of data set: mGluR subtype selectivity: mGluR8. To be noted: for separation in potencies compared to mGluR4: mGluR8 vs mGluR4; for PAM activity at mGluR8 (in words): selectivity.
Sequence of mGluR8 (O00222 34-908, species assumed): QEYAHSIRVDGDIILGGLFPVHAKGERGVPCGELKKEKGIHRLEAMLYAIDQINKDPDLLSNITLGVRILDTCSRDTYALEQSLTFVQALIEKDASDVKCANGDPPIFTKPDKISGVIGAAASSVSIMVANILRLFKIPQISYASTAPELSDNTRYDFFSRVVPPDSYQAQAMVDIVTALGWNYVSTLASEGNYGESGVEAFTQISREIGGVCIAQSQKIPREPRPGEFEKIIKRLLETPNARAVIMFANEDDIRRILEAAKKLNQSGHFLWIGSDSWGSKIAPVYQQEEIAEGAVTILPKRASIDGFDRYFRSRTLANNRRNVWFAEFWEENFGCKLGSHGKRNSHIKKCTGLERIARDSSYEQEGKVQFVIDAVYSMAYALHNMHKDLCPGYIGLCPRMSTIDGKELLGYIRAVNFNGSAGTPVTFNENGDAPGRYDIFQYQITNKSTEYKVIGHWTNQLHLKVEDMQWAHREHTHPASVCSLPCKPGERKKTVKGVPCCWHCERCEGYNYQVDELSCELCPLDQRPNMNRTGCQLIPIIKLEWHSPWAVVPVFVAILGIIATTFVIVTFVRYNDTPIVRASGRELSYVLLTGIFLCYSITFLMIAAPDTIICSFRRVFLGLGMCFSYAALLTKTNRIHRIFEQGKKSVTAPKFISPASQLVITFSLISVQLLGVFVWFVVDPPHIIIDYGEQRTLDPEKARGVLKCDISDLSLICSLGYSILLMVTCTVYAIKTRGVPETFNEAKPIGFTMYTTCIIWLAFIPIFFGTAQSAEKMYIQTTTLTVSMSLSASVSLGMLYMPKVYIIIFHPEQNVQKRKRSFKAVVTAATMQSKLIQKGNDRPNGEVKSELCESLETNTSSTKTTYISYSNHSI
The target of data set [5] is rat mGluR4 (Rattus norvegicus, UniProt P31423).
Sequence of rat mGluR4 (P31423 33-912): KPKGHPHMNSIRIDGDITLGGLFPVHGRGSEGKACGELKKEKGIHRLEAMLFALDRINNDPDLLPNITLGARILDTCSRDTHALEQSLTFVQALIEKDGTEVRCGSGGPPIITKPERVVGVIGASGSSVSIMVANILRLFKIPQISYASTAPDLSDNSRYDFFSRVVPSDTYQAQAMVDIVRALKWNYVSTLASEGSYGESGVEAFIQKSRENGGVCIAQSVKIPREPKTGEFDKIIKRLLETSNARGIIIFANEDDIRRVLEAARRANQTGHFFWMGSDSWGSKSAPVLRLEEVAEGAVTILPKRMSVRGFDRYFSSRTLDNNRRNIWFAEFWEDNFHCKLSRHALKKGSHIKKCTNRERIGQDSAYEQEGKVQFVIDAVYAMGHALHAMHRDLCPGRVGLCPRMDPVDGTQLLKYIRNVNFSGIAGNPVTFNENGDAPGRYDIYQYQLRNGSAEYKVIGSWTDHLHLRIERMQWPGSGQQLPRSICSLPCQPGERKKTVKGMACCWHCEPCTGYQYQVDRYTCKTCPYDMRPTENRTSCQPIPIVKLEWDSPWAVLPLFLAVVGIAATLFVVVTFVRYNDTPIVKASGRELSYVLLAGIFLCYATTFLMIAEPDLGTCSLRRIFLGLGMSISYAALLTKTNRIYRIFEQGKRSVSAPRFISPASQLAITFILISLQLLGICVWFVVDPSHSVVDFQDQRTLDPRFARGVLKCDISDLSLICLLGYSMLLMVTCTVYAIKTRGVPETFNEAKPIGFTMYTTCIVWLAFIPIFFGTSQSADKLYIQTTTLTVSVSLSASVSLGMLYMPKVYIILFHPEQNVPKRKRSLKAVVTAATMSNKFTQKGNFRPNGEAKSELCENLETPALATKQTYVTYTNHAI
A short description of data set [6]: Rat pharmacokinetics, brain and plasma levels after intraperitoneal dosing. To be noted: rats, nontoxic vehicles.
Data set [7] addresses mGluR5 (Homo sapiens, UniProt P41594). Kind of data set: mGluR subtype selectivity: mGluR5. To be noted: for separation in potencies compared to mGluR4: mGluR5 vs mGluR4; for PAM activity at mGluR5 (in words): selectivity.
Data set [8] concerns the target T1, human mGluR4. Kind of data set: Fold shift of glutamate concentration-response curve, human mGluR4/Gqi5 cells. The note with it: fold shift of glutamate response curve to the left.

The structures appear in SMILES notation.

T1 sequence (Q14833 33-912): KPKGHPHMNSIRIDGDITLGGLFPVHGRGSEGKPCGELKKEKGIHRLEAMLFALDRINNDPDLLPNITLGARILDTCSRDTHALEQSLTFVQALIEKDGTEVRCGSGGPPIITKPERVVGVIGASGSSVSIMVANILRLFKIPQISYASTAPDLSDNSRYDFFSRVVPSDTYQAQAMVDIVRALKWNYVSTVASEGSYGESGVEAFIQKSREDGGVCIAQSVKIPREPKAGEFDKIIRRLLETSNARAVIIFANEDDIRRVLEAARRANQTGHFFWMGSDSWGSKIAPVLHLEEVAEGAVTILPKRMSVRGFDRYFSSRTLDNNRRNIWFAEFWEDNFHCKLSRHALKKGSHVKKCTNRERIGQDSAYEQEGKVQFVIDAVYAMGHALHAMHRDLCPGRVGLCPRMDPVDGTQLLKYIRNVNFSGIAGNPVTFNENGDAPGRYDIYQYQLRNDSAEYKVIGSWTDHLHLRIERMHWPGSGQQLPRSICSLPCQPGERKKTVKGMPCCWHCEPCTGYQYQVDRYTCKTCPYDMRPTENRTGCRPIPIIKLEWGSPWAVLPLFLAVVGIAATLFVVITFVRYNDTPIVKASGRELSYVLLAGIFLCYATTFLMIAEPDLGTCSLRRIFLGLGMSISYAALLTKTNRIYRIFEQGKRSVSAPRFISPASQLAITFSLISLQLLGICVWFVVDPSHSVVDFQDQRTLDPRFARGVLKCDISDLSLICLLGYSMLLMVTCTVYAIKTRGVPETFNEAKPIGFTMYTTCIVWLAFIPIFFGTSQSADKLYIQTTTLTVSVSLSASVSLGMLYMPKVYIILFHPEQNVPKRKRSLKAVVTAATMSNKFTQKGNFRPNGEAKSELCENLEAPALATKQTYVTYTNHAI
Sequence of mGluR5 (P41594 21-1212): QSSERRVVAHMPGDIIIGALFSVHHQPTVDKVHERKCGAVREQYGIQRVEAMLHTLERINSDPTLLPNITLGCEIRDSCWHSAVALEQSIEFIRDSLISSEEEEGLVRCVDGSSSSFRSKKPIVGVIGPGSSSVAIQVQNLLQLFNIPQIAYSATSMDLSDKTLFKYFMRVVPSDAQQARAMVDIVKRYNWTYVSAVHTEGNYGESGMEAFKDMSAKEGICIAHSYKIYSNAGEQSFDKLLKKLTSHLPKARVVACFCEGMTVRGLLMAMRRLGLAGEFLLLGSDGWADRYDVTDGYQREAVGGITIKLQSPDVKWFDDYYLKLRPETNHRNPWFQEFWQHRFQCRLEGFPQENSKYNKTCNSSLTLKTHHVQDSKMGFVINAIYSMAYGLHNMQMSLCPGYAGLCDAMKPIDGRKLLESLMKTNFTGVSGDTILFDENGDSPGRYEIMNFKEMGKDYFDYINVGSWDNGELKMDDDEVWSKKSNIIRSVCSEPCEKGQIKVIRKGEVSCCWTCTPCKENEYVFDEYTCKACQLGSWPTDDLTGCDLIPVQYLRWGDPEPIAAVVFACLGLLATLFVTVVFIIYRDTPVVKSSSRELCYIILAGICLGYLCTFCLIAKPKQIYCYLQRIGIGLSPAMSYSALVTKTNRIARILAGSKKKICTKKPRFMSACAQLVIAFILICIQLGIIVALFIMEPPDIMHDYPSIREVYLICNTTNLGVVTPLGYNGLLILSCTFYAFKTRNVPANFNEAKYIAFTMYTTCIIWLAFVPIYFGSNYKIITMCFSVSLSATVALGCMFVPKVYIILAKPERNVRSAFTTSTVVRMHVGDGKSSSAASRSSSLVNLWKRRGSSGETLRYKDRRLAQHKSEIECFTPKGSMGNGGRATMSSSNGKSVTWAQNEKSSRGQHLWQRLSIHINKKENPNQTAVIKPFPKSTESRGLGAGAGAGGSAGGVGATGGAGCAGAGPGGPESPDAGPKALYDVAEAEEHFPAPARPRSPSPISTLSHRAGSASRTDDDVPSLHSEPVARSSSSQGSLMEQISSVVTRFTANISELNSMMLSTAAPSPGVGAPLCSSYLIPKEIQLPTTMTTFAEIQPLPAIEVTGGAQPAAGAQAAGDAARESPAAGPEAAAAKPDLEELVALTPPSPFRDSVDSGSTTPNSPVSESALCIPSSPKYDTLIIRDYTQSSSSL

In the case of `O=C(Nc1cccc(OC(F)(F)F)c1)c1ccccn1` [Compound 9d], the “RLM (% remaining)” value in data set [1] is listed as 20 % remaining. In data set [2] (9d (trifluoromethoxy) vs. 9c (difluoromethoxy)), the loss of activity is reported as over 10 fold. For the same compound, the “HLM (% remaining)” value in data set [3] was 22 % remaining.
In the case of `O=C(Nc1ccc(Cl)c(Cl)c1)C1CCCCC1` [Compound 8h], in data set [2], the “mGluR4 PAM activity (in words)” value was “inactive”.
For `COc1cc(NC(=O)c2ccccn2)ccc1F` [Compound 9a], in data set [1], the “RLM (% remaining)” value was found to be 6.3 % remaining. Also, the “HLM (% remaining)” value in data set [3] was 3.0 % remaining.
On to `COc1cc(NC(=O)c2ccccn2)ncn1` [Compound 9p], for which the “mGluR4 PAM activity (in words)” value in data set [2] was “inactive”.
On to `O=C(Nc1cccc(OC(F)F)c1)c1ccccn1` [Compound 9c], for which, in data set [4], the “separation in potencies compared to mGluR4” value is given as over 20 fold and the “PAM activity at mGluR8 (in words)” value was “weak PAM activity”. Further, in data set [5], the “potency at rat mGluR4 (in words)” value is “submicromolar potency”. In addition, the “RLM (% remaining)” value in data set [1] was found to be 1.4 % remaining. In data set [6], the “central penetration (in words)” value was “centrally penetrant”. In data set [7], the “separation in potencies compared to mGluR4” value is given as over 20 fold and the “PAM activity at mGluR5 (in words)” value was “weak PAM activity”. Moreover, the “mGluR4 PAM activity (in words)” value in data set [2] was “submicromolar potency”. Besides, the “HLM (% remaining)” value in data set [3] was 2.4 % remaining.
For the compound `O=C(Nc1ccccc1)[C@]12C[C@H]1/C(=N\O)c1ccccc1O2` [Compound 1, (-)-PHCCC], in data set [8], the “FS (h)” value is on record as 7.0±0.2.
In the case of `COc1cc(NC(=O)c2ccccn2)ccc1Cl` [Compound 9b], in data set [4], the “separation in potencies compared to mGluR4” value is over 20 fold and the “PAM activity at mGluR8 (in words)” value is “weak PAM activity”. In addition, in data set [5], the “potency at rat mGluR4 (in words)” value is “submicromolar potency”. The “RLM (% remaining)” value in data set [1] is recorded as 1.8 % remaining. Besides, the “central penetration (in words)” value in data set [6] is reported as “centrally penetrant”. Also, in data set [7], the “separation in potencies compared to mGluR4” value is reported as over 20 fold and the “PAM activity at mGluR5 (in words)” value was “weak PAM activity”. In addition, in data set [2], the “mGluR4 PAM activity (in words)” value is recorded as “submicromolar potency”. Also, the “HLM (% remaining)” value in data set [3] came out at 5.3 % remaining.
Consider `O=C(Nc1cccc(C(F)(F)F)n1)c1ccccn1` [Compound 9o], for which, in data set [2], the “mGluR4 PAM activity (in words)” value was “inactive”.
Regarding `O=C(Nc1ccc(Cl)c(Cl)c1)c1ccncn1` [Compound 8l], the “mGluR4 PAM activity (in words)” value in data set [2] is recorded as “retained potency”.
As to `O=C(Nc1cccc(C(F)(F)F)c1)c1ccccn1` [Compound 9e], in data set [1], the “RLM (% remaining)” value is 19 % remaining.
As for `O=C(Nc1ccc(Cl)c(Cl)c1)c1ccccc1` [Compound 8i], in data set [2], the “mGluR4 PAM activity (in words)” value was “inactive”.
For the compound `O=C(Nc1ccc(Cl)c(Cl)c1)c1cnccn1` [Compound 8k], the “mGluR4 PAM activity (in words)” value in data set [2] was “lost activity”.
